Assay results reported in patent US11970489B1, “4-[(substituted 1H-benzimidazol-2-ylsulfanyl)methyl]-6-substituted-2H-chromen-2-ones as larvicidal agents” (KING FAISAL UNIVERSITY, priority 2023, dated 2024).
Like-named read-outs stand apart in the source and are kept apart here.

What was measured:
Anopheles arabiensis = experiment: Larvicidal screening (WHO protocol), 3rd instar larvae; assay type: in vivo
Protocol: Anopheles arabiensis was used in the study according to the protocol described by WHO (1975) guidelines in an insectary simulating the temperature (27.5° C.), humidity (70%), and lighting (12/12) of a malaria-endemic environment. One mL of test compound (1 mg/mL) was added to 1 mL of acetone and followed by […] of distilled water to obtain a final concentration of 4 μg/mL. Thirty individuals of 3rd instar larvae were introduced into a container. Negative control was set up using the solvent (acetone) and distilled water, and a positive control included Temephos, which is an active emulsified organophosphate larvicidal used by malaria control programs. Larval mortality was examined for each container separately for 24 h and fed specially made cat food that contained less oil/fat content. The percentage of mortality was determined relative to the initial number of larvae exposed.
Differences in larval mortality between treatments were assessed with generalized linear models using a quasi-Poisson link function. Anopheles arabiensis mortality was the dependent variable, while fixed effects were test compounds and observation period (24 and 48 h). A p-value <0.05 was considered statistically significant. Throughout the text, the results are presented as the adjusted mean the standard error.

| melting point [°C] | SMILES | mortality at 4 µg/mL (Anopheles arabiensis; 24 h, read-out: Mortality 24 h) [%] | mortality at 4 µg/mL (Anopheles arabiensis; 48 h, read-out: Mortality 48 h) [%] |
| --- | --- | --- | --- |
| – | Cc1ccc2oc(=O)cc(CSc3nnc(C)s3)c2c1 [Compound 3e, 6-Methyl-4-{[(5-methyl-1,3,4-thiadiazol-2-yl)sulfanyl]methyl}-2H-chromen-2-one] | 77.2 ± 2.02 | 82.2 ± 1.93 |
| 189 to 190 | CC(C)(C)c1ccc2oc(=O)cc(CSc3nc4ccccc4[nH]3)c2c1 | – | – |
| – | CC(C)(C)c1ccc2oc(=O)cc(CSc3nc4ccccc4s3)c2c1 [Compound 3i, 4-[(1,3-Benzothiazol-2-ylsulfanyl)methyl]-6 tert-butyl-2H-chromen-2-one] | 89.9 ± 2.44 | 94.7 ± 2.11 |
| 190 to 192 | Cc1ccc2oc(=O)cc(CSc3nc4ccccc4[nH]3)c2c1 | – | – |
| 192 to 194 | Cc1ccc2oc(=O)cc(CSc3nc4ccccc4s3)c2c1 | – | – |
| 176 to 178 | COc1ccc2nc(SCc3cc(=O)oc4ccc(C)cc34)[nH]c2c1 | – | – |
| – | Cc1nnc(SCc2cc(=O)oc3ccc(C(C)(C)C)cc23)s1 [Compound 3j, 4-{[(5-Methyl-1,3,4-thiadiazol-2-yl)sulfanyl]methyl}-6 tert-butyl-2H-chromen-2-one] | 94.7 ± 2.61 | 95.1 ± 2.09 |
| 212 to 214 | CC(C)(C)c1ccc2oc(=O)cc(CSc3nc4ccccc4o3)c2c1 | – | – |
| – | Cc1ccc2oc(=O)cc(CSc3nc4ccccc4o3)c2c1 [Compound 3c, 4-[(1,3-Benzoxazol-2-ylsulfanyl)methyl]-6-methyl-2H-chromen-2-one] | 70.1 ± 2.29 | 75.8 ± 2.21 |
| – | COP(=S)(OC)Oc1ccc(Sc2ccc(OP(=S)(OC)OC)cc2)cc1 [Temephos, reference compound] | 98.9 ± 2.7 | 100 ± 2.71 |
